Consider two compounds from ChEMBL document CHEMBL4364346, “Structure optimization of a new class of PPARγ antagonists” (Bioorg Med Chem, 2019).

Calls of active or inactive are those of the source. The rule behind the calls is not given here.

The target in series [1] is Oxysterols receptor LXR-alpha (Homo sapiens) (UniProt Q13133). Description: Antagonist activity at recombinant human pFA-CMV fused LXRalpha LBD transfected in HEK293T cells assessed as reduction in T0901317-induced LXRalpha activation at 1 uM incubated for 12 to 14 hrs by dual glo luciferase reporter gene assay. (In general: In a reporter assay the amount or activity of a reporter protein is the signal.)

In series [2] the target is T1, Vitamin D3 receptor (Homo sapiens) (UniProt P11473).
T1 sequence (whole entry): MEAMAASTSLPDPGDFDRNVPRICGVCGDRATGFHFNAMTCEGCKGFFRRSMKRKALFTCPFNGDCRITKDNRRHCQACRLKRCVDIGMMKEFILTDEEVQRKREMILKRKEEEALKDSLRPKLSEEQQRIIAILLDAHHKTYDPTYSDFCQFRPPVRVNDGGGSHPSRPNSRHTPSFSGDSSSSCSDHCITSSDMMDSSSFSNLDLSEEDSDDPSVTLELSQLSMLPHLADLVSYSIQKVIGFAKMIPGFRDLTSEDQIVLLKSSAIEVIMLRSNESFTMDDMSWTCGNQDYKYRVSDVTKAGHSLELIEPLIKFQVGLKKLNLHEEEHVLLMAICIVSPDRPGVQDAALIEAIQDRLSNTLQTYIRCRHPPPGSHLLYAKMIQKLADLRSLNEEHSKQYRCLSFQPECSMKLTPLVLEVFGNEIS
Nature of the series: Antagonist activity at recombinant human pFA-CMV fused VDR LBD transfected in HEK293T cells assessed as calcitrol-induced VDR activation at 1 uM incubated for 12 to 14 hrs by dual glo luciferase reporter gene assay. The series is classed as cell-based.

In series [3] the target is T2, Peroxisome proliferator-activated receptor alpha (Homo sapiens) (UniProt Q07869).
T2 sequence (whole entry): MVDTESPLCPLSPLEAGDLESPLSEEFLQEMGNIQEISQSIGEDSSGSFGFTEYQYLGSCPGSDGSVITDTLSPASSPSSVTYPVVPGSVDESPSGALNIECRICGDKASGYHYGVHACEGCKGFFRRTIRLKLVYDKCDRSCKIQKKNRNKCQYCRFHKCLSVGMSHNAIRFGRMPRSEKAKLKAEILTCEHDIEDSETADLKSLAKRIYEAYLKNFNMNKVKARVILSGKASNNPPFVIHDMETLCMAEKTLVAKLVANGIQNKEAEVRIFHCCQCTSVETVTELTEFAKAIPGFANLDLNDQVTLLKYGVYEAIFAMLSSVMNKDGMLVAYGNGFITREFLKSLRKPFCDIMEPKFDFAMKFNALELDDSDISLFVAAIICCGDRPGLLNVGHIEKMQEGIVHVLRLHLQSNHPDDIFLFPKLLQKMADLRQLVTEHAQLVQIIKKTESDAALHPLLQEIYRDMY
Nature of the series: Agonist activity at recombinant human pFA-CMV fused PPARalpha LBD transfected in HEK293T cells assessed as PPARalpha activation at 1 uM incubated for 12 to 14 hrs by dual glo luciferase reporter gene assay. In kind it is cell-based.

The nature of series [4]: Plasma concentration in Swiss CD1 mouse at 1 mg/kg, ip measured upto 3 hrs by LC-MS analysis. In kind it is ADME, organism-based.
The target in series [5] is T3, Retinoic acid receptor alpha (Homo sapiens) (UniProt P10276).
T3 sequence (whole entry): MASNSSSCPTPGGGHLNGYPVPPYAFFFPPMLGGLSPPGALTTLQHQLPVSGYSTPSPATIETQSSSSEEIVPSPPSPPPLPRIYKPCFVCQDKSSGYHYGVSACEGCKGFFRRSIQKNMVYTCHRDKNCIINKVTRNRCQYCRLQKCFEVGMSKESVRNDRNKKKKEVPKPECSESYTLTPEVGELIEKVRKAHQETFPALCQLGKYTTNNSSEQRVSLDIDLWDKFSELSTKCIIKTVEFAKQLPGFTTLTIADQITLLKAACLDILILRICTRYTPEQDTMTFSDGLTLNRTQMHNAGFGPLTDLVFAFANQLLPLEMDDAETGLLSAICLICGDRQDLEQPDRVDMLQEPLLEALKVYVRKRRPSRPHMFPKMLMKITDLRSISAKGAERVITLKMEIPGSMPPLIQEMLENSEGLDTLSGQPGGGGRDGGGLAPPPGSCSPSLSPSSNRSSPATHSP
Description: Agonist activity at recombinant human pFA-CMV fused RARalpha LBD transfected in HEK293T cells assessed as RARalpha activation at 1 uM incubated for 12 to 14 hrs by dual glo luciferase reporter gene assay. The series is classed as cell-based.

The target of series [6] is T4, Peroxisome proliferator-activated receptor delta (Homo sapiens) (UniProt Q03181).
T4 sequence (whole entry): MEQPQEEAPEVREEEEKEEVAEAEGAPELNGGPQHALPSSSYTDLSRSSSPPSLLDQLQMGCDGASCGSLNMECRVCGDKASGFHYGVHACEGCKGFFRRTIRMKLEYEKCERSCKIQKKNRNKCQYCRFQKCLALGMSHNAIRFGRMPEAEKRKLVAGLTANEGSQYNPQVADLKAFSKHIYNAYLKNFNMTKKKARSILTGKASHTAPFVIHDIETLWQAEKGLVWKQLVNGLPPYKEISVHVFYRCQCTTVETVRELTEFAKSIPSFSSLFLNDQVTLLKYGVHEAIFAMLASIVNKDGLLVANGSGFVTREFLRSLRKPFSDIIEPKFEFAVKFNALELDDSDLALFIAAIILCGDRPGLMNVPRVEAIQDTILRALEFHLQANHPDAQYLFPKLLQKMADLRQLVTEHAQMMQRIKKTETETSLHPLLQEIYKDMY
Nature of the series: Antagonist activity at recombinant human pFA-CMV fused PPARdelta LBD transfected in HEK293T cells assessed as reduction in L165041-induced PPARdelta activation at 1 uM incubated for 12 to 14 hrs by dual glo luciferase reporter gene assay. The series is classed as cell-based.

Series [7] addresses Oxysterols receptor LXR-alpha (Homo sapiens) (UniProt Q13133). Description: Agonist activity at recombinant human pFA-CMV fused LXRalpha LBD transfected in HEK293T cells assessed as LXRalpha activation at 1 uM incubated for 12 to 14 hrs by dual glo luciferase reporter gene assay.
Series [8] is described as follows: Metabolic stability in Sprague-Dawley rat liver microsomes assessed as remaining compound at […] incubated for 60 mins. The series is classed as ADME, Microsome. The settings on record: read-out: Stability. For orientation: Liver microsomes are vesicles of endoplasmic reticulum, rich in cytochrome P450 enzymes.
The target in series [9] is T4, Peroxisome proliferator-activated receptor delta (Homo sapiens). Description: Agonist activity at recombinant human pFA-CMV fused PPARdelta LBD transfected in HEK293T cells assessed as PPARdelta activation at 1 uM incubated for 12 to 14 hrs by dual glo luciferase reporter gene assay. The series is classed as cell-based.

Chain of Oxysterols receptor LXR-alpha (Homo sapiens) (Q13133 whole entry, looked up, the tested form may be a part): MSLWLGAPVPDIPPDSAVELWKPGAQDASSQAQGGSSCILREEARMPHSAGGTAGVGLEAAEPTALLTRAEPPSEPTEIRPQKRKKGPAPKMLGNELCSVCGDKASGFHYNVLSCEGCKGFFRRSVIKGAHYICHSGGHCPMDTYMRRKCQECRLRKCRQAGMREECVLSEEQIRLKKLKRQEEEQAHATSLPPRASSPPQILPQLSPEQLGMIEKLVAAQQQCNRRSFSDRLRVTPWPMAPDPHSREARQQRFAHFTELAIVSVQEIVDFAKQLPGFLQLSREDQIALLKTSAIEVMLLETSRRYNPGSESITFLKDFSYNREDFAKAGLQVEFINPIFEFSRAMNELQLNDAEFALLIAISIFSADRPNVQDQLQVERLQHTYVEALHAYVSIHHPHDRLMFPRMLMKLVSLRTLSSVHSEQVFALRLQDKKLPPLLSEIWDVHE

For `CCC/C(=C\c1cc(OCc2ccc3nc(C(F)(F)F)cc(OC)c3c2)ccc1OCC1CCN(C)CC1)C(=O)O`, the outcome in series [1], in [2], in [3], in series [5], in series [6] and in series [7] was inactive. Besides, the result in series [9] was inactive. In series [4], this compound displayed a concentration at 3 h of 14 nM. For the same compound, in series [8], the remaining at 1 h turned out to be 95%.

As for `CCC/C(=C\c1cc(OCc2ccc3nc(C(F)(F)F)cc(OC)c3c2)ccc1OCCN1CCN(C)CC1)C(=O)O`, the outcome in series [1], in [2], in [3], in [5], in series [6] and in series [7] was inactive. The result in [9] was inactive. The concentration at 3 h in series [4] was determined as 9.5 nM. For the same compound, in [8], the remaining at 1 h is 81%.
